Laboratory results from patent publication US20230043863A1, “HETEROAROMATIC DERIVATIVES FOR USE AS REGULATOR, PREPARATION METHOD THEREFOR AND USE THEREOF” (JIANGSU HANSOH PHARMACEUTICAL GROUP CO., LTD., priority 2018, published 2023).
Read-outs that look alike come from different tables or passages of the source.

What was measured:
[1] = molecular target: JAK1 (Homo sapiens, UniProt P23458); assay: JAK kinase activity inhibition, TR-FRET (JAK1); assay type: biochemical; conditions: TR-FRET kinase assay
JAK1, sequence (P23458 whole entry): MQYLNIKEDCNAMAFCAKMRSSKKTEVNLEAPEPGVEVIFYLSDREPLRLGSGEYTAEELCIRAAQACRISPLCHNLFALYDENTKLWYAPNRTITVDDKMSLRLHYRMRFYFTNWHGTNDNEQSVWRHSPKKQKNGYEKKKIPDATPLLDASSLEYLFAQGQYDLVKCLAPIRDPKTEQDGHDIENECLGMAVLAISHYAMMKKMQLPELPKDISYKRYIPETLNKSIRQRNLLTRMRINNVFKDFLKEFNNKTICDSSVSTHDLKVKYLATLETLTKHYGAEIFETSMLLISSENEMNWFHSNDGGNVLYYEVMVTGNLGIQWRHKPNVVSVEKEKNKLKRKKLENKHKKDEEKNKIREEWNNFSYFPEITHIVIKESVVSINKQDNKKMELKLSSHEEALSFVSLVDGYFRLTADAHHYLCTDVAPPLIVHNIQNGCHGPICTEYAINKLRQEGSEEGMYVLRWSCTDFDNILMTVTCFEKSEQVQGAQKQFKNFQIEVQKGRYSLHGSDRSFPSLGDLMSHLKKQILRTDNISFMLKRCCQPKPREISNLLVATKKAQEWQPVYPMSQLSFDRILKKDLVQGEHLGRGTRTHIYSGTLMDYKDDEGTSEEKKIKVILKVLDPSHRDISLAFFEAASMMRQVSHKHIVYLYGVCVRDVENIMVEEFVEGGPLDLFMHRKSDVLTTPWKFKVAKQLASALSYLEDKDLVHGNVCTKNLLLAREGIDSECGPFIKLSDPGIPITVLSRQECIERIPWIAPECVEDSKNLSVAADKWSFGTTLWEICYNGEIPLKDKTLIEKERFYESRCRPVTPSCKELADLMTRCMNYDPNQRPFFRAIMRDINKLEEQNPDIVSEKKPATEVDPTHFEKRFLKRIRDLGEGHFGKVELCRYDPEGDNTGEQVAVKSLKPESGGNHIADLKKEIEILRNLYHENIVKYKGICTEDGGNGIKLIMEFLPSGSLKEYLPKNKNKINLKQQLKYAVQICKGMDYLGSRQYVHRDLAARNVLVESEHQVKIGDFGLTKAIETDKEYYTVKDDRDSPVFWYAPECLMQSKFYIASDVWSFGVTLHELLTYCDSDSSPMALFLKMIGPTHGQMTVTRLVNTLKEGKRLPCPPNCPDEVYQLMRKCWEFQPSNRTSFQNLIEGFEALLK
Procedure, shortened: (§1)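 TR-FRET read (≈620 and 665 nm) after EDTA quench and 1-24 h antibody detection at RT. Kinase 0.1-20 nM, peptide substrate + ATP, 0.5-5 h RT reaction in HEPES 50-250 mM, MgCl2 5-20 mM. IC50 from 4-parameter fit vs DMSO and no-kinase controls.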

[2] = molecular target: TYK2 (Homo sapiens, UniProt P29597); assay: JAK kinase activity inhibition, TR-FRET (TYK2); assay type: biochemical; conditions: TR-FRET kinase assay
TYK2, sequence (P29597 whole entry): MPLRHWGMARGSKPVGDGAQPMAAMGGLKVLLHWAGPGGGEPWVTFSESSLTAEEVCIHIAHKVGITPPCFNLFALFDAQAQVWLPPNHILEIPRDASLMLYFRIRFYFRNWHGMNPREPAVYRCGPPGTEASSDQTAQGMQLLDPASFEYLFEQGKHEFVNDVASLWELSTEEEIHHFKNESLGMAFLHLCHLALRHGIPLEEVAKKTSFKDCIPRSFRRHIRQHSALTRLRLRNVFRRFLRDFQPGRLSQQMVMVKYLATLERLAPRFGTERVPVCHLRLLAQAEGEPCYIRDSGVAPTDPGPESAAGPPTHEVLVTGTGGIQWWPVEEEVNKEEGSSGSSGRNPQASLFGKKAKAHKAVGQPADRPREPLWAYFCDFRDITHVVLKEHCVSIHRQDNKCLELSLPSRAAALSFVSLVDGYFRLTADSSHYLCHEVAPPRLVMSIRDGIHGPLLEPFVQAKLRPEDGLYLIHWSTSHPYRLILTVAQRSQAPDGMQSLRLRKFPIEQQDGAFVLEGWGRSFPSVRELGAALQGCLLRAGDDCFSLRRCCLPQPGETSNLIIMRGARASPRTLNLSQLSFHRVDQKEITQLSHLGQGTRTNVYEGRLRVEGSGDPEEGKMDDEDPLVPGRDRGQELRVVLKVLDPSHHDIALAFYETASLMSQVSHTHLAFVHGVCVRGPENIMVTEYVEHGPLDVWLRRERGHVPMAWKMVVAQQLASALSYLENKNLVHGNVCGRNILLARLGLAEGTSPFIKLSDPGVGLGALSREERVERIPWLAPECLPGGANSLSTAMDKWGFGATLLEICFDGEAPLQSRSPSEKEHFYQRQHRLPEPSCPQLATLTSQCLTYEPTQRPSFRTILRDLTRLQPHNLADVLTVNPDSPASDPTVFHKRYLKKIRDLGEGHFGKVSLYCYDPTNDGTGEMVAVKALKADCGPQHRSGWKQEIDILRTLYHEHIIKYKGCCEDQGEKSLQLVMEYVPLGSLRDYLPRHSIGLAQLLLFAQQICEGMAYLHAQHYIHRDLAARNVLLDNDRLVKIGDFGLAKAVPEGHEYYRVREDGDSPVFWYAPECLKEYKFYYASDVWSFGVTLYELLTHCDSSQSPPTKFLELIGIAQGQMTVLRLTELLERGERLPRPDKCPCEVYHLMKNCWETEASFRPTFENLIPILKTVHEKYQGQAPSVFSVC
Procedure, shortened: as §1

[3] = test system: JAK-STAT signal pathway of U266 cells; assay: Inhibition of cellular JAK-STAT signal pathway (STAT3 phosphorylation) in U266 cells; assay type: cell-based, human; conditions: Homo sapiens, U-266, INF-a 1000 U/mL stimulation
Protocol: The objective of the test is to test the inhibitory activity of the compound on the cellular JAK-STAT signaling pathway.
U266 cell line was used in this experiment, by activating the JAK-STAT signaling pathway through INF-a stimulation, the inhibitory activity of the compound on its downstream STAT3 phosphorylation was detected, and the half inhibitory concentration IC50 of the compound on the JAK-STAT signaling pathway activity was obtained.
3-12 μL of U266 cell line was spread into the 384-well detection plate, and the number of cells in each well was 100-300 K, followed by addition of 2 μL of the compound solution serially diluted. The plate was incubated for 2 hours with shaking at 350 rpm at room temperature. After 2 hours, 2 μL of INF-a with a final concentration of 1000 U/mL was added. The plate was shaken at room temperature for 15 minutes. 2-5 μL (5×) LANCE Ultra Lysis Buffer 2 solution was added and the plate was shaken at room temperature for 2 hours. After 2 hours, 5 μL of LANCE Ultra Eu-labeled Anti-STAT3 Antibody (PerkinElmer) with a final concentration of 0.5 nM and LANCE Ultra ULight-labeled Anti-STAT3 Antibody (PerkinElmer) with a final concentration of 5 nM were added, and the plate was incubated overnight at room temperature. The fluorescence signal value at 665 nm of each well was measured with the microplate reader, and the inhibition rate was calculated from the fluorescence signal value. According to the inhibition rate of different concentrations, the IC50 of the compound was obtained by curve fitting.
The percentage inhibition data of the wells treated with the compound was calculated with the positive control wells (DMSO control wells) and negative control wells (no kinase added) on the plate {% inhibition rate=100-[(test compound value-negative control value)]/(Positive control value-negative control value)×100}. IC50 value was calculated by using GraphPad prism to fit the data of different concentrations and corresponding percentage inhibition rates to a 4-parameter non-linear logic formula.

[4] = Balb/C mouse pharmacokinetics (plasma, colon, ileum); assay type: in vivo; conditions: male, po, Balb/C mice, p.o. 5 mg/kg; for Cmax: read-out: Blood concentration Cmax; for AUC(0-t): read-out: Curve area AUC0-t; for AUC(0-inf): read-out: Curve area AUC0-∞; for half-life: read-out: Half life period t1/2 (converted); for MRT: read-out: Mean detention time MRT; for Tmax: read-out: Time to peak tmax
Source text: Balb/C mouse was used as the test animal, the pharmacokinetic behavior in mice (plasma and colon, ileum tissue) was studied after oral administering the embodiment 1, embodiment 60, embodiment 169, embodiment 170, embodiment 171, embodiment 179, embodiment 191, embodiment 213, embodiment 214, embodiment 237, embodiment 238, embodiment 244, embodiment 246, embodiment 247, embodiment 257, embodiment 260, embodiment 262, embodiment 263, embodiment 267, embodiment 277, embodiment 278, embodiment 279, embodiment 288, embodiment 295, embodiment 299 and embodiment 301 at a dose of 5 mg/kg. After analyzing the drug concentration in the colon and ileum, the ratio of the drug concentration in the colon to that in ileum, and the ratio of the drug concentration in the colon to that in the plasma, the compounds with excellent PK were selected for further research.
12 Balb/C mice in each group, male, Shanghai Jiesjie Experimental Animal Co., Ltd., animal production license number (SCXK (Shanghai) 2013-0006 N0.311620400001794).
12 Balb/C mice in each group, male; p.o. after one night fast; the dose was 5 mg/kg; the administration volume was 10 mL/kg.
At 0, 0.5, 1, 2, 3, 5 and 7 hours before and after the administration, the mice were executed by CO2 and 0.2 mL of blood was collected from the heart, placed in an EDTA-K2 test tube, and centrifuged at 6000 rpm at 4° C. for 6 minutes to separate the plasma, which was then stored at −80° C. The ileum was taken close to the cecum end with a length of about 4-5 cm, and the colon was also taken close to the cecum end with a length of about 2-3 cm, weighed and placed in a 2 mL centrifuge tube, then stored at −80° C.
1) 40 uL of plasma sample was precipitated by adding 160 uL of acetonitrile, mixed and centrifuged at 3500×g for 5-20 minutes.
2) 30 μL of plasma and intestinal homogenate sample were precipitated by adding 90 of acetonitrile containing internal standard (100 ng/mL), mixed and centrifuged at 13000 rpm for 8 minutes.
3) 70 μL of the supernatant solution after treatment was collected and 70 μL of water was added thereto, vortexed and mixed for 10 minutes, and then 20 μL was collected to analyze the concentration of the test compound by LC/MS/MS. LC/MS/MS analysis instrument: AB Sciex API 4000 Qtrap.
Liquid phase conditions: Shimadzu LC-20AD Pump
Chromatographic column: Agilent ZORBAX XDB-C18 (50×2.1 mm, 3.5 μm) mobile phase: 0.1% formic acid aqueous solution as A solution, acetonitrile as B solution
Elution time: 0-4.0 minutes, the eluent is as follows:
The main pharmacokinetic parameters were calculated with WinNonlin 6.1, and the results of mouse pharmacokinetic experiments are shown in Table 3:
NA refers to none detected or not being tested (the detection limit of blood concentration was 1 ng/mL, when the Cmax in the blood test is NA, then NA in the blood test index refers to none detected; when the Cmax in the blood test is higher than the quantitative limit 1 ng/mL, then NA in the blood test index refers to not being tested; NA in the tissues (colon and ileum) refers to not being tested).

AUC(0-inf) ([4]; plasma, blood) [ng·h/mL]	half-life ([4]; plasma, blood) [h]	Structure (SMILES)	IC50 [1] [nM]	IC50 [2] [nM]	IC50 [3] [nM]	Cmax ([4]; plasma, blood) [ng/mL]	AUC(0-t) ([4]; plasma, blood) [ng·h/mL]	MRT ([4]; plasma, blood) [h]	Tmax ([4]; plasma, blood) [h]	Cmax ([4]; colon) [ng/mL]	AUC(0-t) ([4]; colon) [ng·h/mL]	MRT ([4]; colon) [h]	Tmax ([4]; colon) [h]	Cmax ([4]; ileum) [ng/mL]	AUC(0-t) ([4]; ileum) [ng·h/mL]	AUC(0-inf) ([4]; ileum) [ng·h/mL]	half-life ([4]; ileum) [h]	MRT ([4]; ileum) [h]	Tmax ([4]; ileum) [h]	AUC(0-inf) ([4]; colon) [ng·h/mL]	further results
145	1.07	Cc1cc(Nc2nc(NC3CCN(CCC#N)CC3)nc3sccc23)n[nH]1 [Embodiment 301, 3-(4-((4-((5-methyl-1H-pyrazol-3-yl)amino)thieno[2,3-d]pyrimidin-2-yl)amino)piperidin-1-yl)propionitrile]	1.64	0.45	1.26	69.4	143	1.65	1	1500	4240	4.74	5	21100	35300	35300	0.6	1.23	1	–	–
–	–	Cc1cc(Nc2nc(N[C@@H]3C[C@H]4CC[C@@H](C3)N4C(=O)CN3CCOCC3)nc3sccc23)n[nH]1 [Embodiment 244, 1-((3-exo)-3-((4-((5-methyl-1H-pyrazol-3-yl)amino)thieno[2,3-d]pyrimidin-2-yl)amino)-8-azabicyclo[3.2.1]oct-8-yl)-2-morpholinoethane-1-one]	1.15	2.45	3.79	12	18	2.12	3	1190	4900	4.38	7	9010	22600	22600	0.66	1.83	1	–	–
17.8	3.76	Cc1cc(Nc2nc(N[C@@H]3C[C@@H]4CN(CCC#N)C[C@@H]4C3)nc3ccsc23)n[nH]1 [Embodiment 299, 3-(cis-5-((4-((5-methyl-1H-pyrazol-3-yl)amino)thieno[3,2-d]pyrimidin-2-yl)amino)hexahydrocyclopentadieno[c]pyrrole-2(1H)-yl)propionitrile]	0.28	0.56	2.46	6.01	10.6	1.92	0.5	295	948	4.94	7	531	1320	1350	0.89	3.37	3	–	–
–	–	Cc1cc(Nc2nc(N[C@@H]3C[C@H]4CCC[C@@H](C3)N4C(=O)c3ccncc3)nc3sccc23)n[nH]1 [Embodiment 262, ((3-exo)-3-((4-((5-methyl-1H-pyrazol-3-yl)amino)thieno[2,3-d]pyrimidin-2-yl)amino)-9-azabicyclo[3.3.1]non-9-yl)(pyridin-4-yl)methanone]	0.07	1.35	9.47	8.01	13.4	1.77	2	1240	3940	3.72	3	22300	40200	40300	0.49	1.34	1	4520	half-life ([4]; colon): 1.69 h
–	–	Cc1cc(Nc2nc(N[C@@H]3C[C@H]4CC[C@@H](C3)N4CCC#N)nc3cc(-c4cccnc4)ccc23)n[nH]1 [Embodiment 179, 3-((3-exo)-3-((4-((5-methyl-1H-pyrazol-3-yl)amino)-7-(pyridin-3-yl)quinazolin-2-yl)amino)-8-azabicyclo[3.2.1]oct-8-yl)propionitrile]	0.44	0.47	9.84	3.8	6.76	1.66	0.5	485	2040	2.83	1	2330	10300	–	–	2.88	3	2180	half-life ([4]; colon): 1.49 h

Structure (SMILES)	AUC(0-inf) ([4]; plasma, blood) [ng·h/mL]	half-life ([4]; plasma, blood) [h]	IC50 [1] [nM]	IC50 [2] [nM]	IC50 [3] [nM]	Cmax ([4]; plasma, blood) [ng/mL]	AUC(0-t) ([4]; plasma, blood) [ng·h/mL]	MRT ([4]; plasma, blood) [h]	Tmax ([4]; plasma, blood) [h]	Cmax ([4]; colon) [ng/mL]	AUC(0-t) ([4]; colon) [ng·h/mL]	MRT ([4]; colon) [h]	Tmax ([4]; colon) [h]	Cmax ([4]; ileum) [ng/mL]	AUC(0-t) ([4]; ileum) [ng·h/mL]	AUC(0-inf) ([4]; ileum) [ng·h/mL]	half-life ([4]; ileum) [h]	MRT ([4]; ileum) [h]	Tmax ([4]; ileum) [h]	AUC(0-inf) ([4]; colon) [ng·h/mL]	further results
Cc1cc(Nc2nc(N[C@@H]3C[C@H]4CCC[C@@H](C3)N4C(=O)CN3CCOCC3)nc3ccsc23)n[nH]1 [Embodiment 288, 1-((3-exo)-3-((4-((5-methyl-1H-pyrazol-3-yl)amino)thieno[3,2-d]pyrimidin-2-yl)amino)-9-azabicyclo[3.3.1]non-9-yl)-2-morpholinoethane-1-one]	24.5	2.6	0.27	8.09	4.03	11	21.5	2.5	2	676	2900	3.91	3	7380	17600	–	–	2.89	3	–	–
